The target in assay [1] is T1, human CB2 (hCB2) (Homo sapiens, UniProt P34972).
T1 construct: (cDNA clone) CNR0200000
Kind of assay: 35S GTPγS binding assay, hCB2 agonist. It is filed as biochemical. As for the experimental part: cDNA expression clones for human CB1 (hCB1, Genbank Accession No. AY225225) and human CB2 (hCB2, Genbank Accession No. AY242132) expressed in vector pcDNA3.1+ were purchased from UMR cDNA Resource Center, Rolla, Mo. (Clone ID CNR01L000 for hCB1; CNR0200000 for hCB2).
(§1) Membranes were isolated from transfected cells as follows. Monolayers of cultured cells were washed twice with phosphate-buffered saline (PBS). […] Homogenates were centrifuged 10 minutes at 1000×g at 4° C. The supernatant was collected and was centrifuged for 1 hour at 40,000×g. The supernatant was then decanted and the resulting pellet was re-suspended in 20 mM HEPES, pH 7.4, 5 mM MgCl2, 1 mM EDTA, 10% sucrose with complete cocktail protease inhibitors. Protein concentration of membrane suspensions were measured by Bradford Protein Assay using bovine serum albumin as the standard (BioRad catalog #500-0006). Protein concentrations of membrane suspensions were adjusted with the final buffer in the range of 5 to 10 mg/mL and were stored at −80° C. until further use.
(§2) Functional assays which monitor G-protein coupled receptor or downstream cellular responses can be used to characterize potential CB1 receptor and/or CB2 receptor agonist or antagonist activities. Direct activation (or inhibition of activation) can be monitored using a GTPγS assay (membrane-based assay) or cAMP assay (whole cell-based assay).
^35S GTPγS binding assays were performed by incubating recombinant cell membranes prepared above (5 μg) in the presence of scintillation proximity assay beads (SPA beads, Catalog #RPNQ0252 GE Healthcare, Buckinghamshire, England) in GTPγS binding buffer [50 mM HEPES (pH 7.4), 100 mM NaCl, 5 mM MgCl2, 0.001% saponin (Sigma catalog #S4521)] supplemented with 20 uM GDP (Sigma catalog #G7127) in the presence or absence of test compound. The reaction was carried out in 96-well microplates with 0.1 nM [^35S]GTPγS (specific activity=1250 Ci/mmol; Perkin Elmer catalog #NEG030X250UC) in a final volume of 100 uL. After a 90 min room temperature incubation, the reaction was analyzed using a scintillation counter (Perkin Elmer Microbeta instrument). Binding data were analyzed using GraphPad Prism.

Assay [2] concerns the target T2, human CB1 receptors (Homo sapiens, UniProt P21554).
T2 construct: (cDNA clone) CNR01L000
Description: cAMP assay in HEK-293 cells, hCB1 agonist. The class given is cell-based. The note with it: inhibition of forskolin-stimulated cAMP, HEK-293 cells.
Text: (§3) Stable, HEK-293-derived cell lines that recombinantly express hCBI or hCB2 were established. In brief, the clone hCB1 (CNR IL) or hCB2 (CNR2) was transfected into human embryonic kidney cells (HEK-293) using Lipofectamine 2000 (Gibco, Cat#11668-019) according to the manufacturer's protocol. Transfected clones were isolated by single colony purification and clones were screened for receptor expression using a whole cell, ^3H—CP 55,940 radioligand binding assay. HEK-293 stable cells were maintained in Dulbecco's modified Eagles medium (DMEM) containing 10% fetal bovine serum, 2 mM L-glutamine and 0.5 mg/mL G-418.
as §2
(§4) cAMP assays were performed in HEK-293 cells stably expressing human CB1 or CB2 receptors. For cannabinoid receptor functional assays measuring agonist effects on cellular cAMP levels, monolayers of cultured cells were harvested with enzyme-free PBS-based cell dissociation buffer (Gibco, Cat#13151-04). Cells suspensions were centrifuged and the cells were washed once with PBS, were centrifuged again, and the cells were re-suspended in HBSS (Hank's Balanced Salt Solution, Cellgro, Cat #21-022-CV) solution containing 10 mM HEPES and 0.1% fatty acid free BSA (Sigma, Cat #A0281). Cell suspensions were prepared at 1,500,000 cells per ml. Stock solutions of test substances (10 mM) in DMSO were diluted to 1 mM using 30% DMSO as diluent. Test substances of solutions (1 mM) were further diluted down to 3× of final assay concentrations in the above HBSS buffer containing 0.1% BSA in the presence of 90 uM forskolin (Sigma Cat#F6886). To perform the assay, 20 uL of cell suspension (1,500,000 cells/mL) were added to each well in 96 well plate and treated with 10 uL test substance solution diluted as described above. Cells and compounds were incubated at 37° C. for 30 minutes. Cells were lysed and cAMP concentration was measured using DiscoveRx −XS+ cAMP assay kit (DiscoveRx Corporation Ltd., Fremont, Calif., USA, Cat #90-0075-03), following the manufacturer's protocol. GraphPad Prism software was used to calculate EC50 values using sigmoidal dose response curve fitting. The maximal amount of cAMP produced by forskolin was defined as 100%. CB1 or CB2 agonists reduced forskolin-stimulated cAMP signaling. The EC50 value of an agonist compound was defined as the concentration at which 50% of the forskolin-stimulated cAMP synthesis was inhibited.

Assay [3] deals with T3, recombinant human cannabinoid receptor CB1 (Homo sapiens, UniProt P21554).
T3 construct: (cDNA clone) CNR01L000
T3 sequence (P21554 whole entry): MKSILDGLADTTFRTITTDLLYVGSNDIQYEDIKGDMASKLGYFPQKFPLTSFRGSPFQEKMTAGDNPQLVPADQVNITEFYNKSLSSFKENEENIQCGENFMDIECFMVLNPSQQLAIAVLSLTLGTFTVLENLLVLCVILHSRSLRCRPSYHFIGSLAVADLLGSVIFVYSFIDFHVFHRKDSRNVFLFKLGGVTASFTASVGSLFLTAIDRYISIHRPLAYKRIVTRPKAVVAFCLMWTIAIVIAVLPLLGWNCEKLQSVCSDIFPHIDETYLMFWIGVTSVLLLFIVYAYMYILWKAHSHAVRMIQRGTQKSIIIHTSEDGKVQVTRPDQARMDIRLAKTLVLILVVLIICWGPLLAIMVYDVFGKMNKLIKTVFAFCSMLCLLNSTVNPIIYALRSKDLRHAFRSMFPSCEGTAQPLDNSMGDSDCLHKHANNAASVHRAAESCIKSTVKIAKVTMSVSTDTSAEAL
Kind of assay: Cannabinoid receptor radioligand binding assay, [3H]-CP 55,940 displacement, hCB1.
Text: as §3
Membranes were isolated from transfected cells as follows. Monolayers of cultured cells were washed twice with phosphate-buffered saline (PBS). Cells were scraped into 20 mM HEPES, pH 7.4, 10 mM EDTA containing complete cocktail protease inhibitors (Roche, Catalog #11 697 498 001) and were homogenized by an electric-powered mechanical probe homogenizer (Omni GLH; probe G7-195S) for 40 seconds at 7000 rpm. Homogenates were centrifuged 10 minutes at 1000×g at 4° C. The supernatant was collected and was centrifuged for 1 hour at 40,000×g. The supernatant was then decanted and the resulting pellet was re-suspended in 20 mM HEPES, pH 7.4, 5 mM MgCl2, 1 mM EDTA, 10% sucrose with complete cocktail protease inhibitors. Protein concentration of membrane suspensions were measured by Bradford Protein Assay using bovine serum albumin as the standard (BioRad catalog #500-0006). Protein concentrations of membrane suspensions were adjusted with the final buffer in the range of 5 to 10 mg/mL and were stored at −80° C. until further use.
Radioligand binding assays were performed by incubating membranes (2-10 μg protein) prepared from HEK-293 cells expressing recombinant human cannabinoid receptors, CB1 or CB2, at room temperature with 0.5 nM cannabinoid receptor agonist, [^3H]-CP 55,940 (Perkin Elmer, catalog #NET1051) in 0.2 mL of binding buffer (50 mM Tris-HCl, pH 7.5, 5 mM MgCl2, 2.5 mM EDTA) and 0.1% fatty acid free bovine serum albumin (Sigma Cat. #A0821) for 90 minutes. A rapid filtration technique using Millipore FB filter plates (Catalog #MADVNOB) and filtration apparatus (Millipore system Catalog MAVM0960R) with vacuum aspiration was used to harvest and rinse labeled membranes (8 times with 0.2 mL of chilled binding buffer). The radioactivity bound to the filters was counted with 0.05 mL of liquid scintillant (UltraGold MV, PerkinElmer catalog #6013159) in a scintillation counter (Perkin Elmer Microbeta instrument). Nonspecific binding was determined in the presence of unlabeled 1 μM CP 55,940 (Sigma Aldrich, catalog #C1112). Binding data were analyzed using GraphPad Prism (GraphPad Software, Inc. San Diego, Calif.).

In assay [4] the target is T4, recombinant human cannabinoid receptor CB2 (Homo sapiens, UniProt P34972).
T4 construct: (cDNA clone) CNR0200000
T4 sequence (P34972 whole entry): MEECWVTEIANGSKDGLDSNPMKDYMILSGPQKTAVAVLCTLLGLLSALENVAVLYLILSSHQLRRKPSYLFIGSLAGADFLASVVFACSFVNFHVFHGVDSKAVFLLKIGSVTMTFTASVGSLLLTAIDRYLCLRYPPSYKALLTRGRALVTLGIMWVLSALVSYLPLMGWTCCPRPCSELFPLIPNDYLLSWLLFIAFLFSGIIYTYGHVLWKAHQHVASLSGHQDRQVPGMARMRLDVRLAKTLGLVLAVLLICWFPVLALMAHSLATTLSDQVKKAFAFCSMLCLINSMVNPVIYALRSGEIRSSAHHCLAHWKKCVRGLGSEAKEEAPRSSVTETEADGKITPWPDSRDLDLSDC
Kind of assay: Cannabinoid receptor radioligand binding assay, [3H]-CP 55,940 displacement, hCB2. As for the experimental part:
as §1
A rapid filtration technique using Millipore FB filter plates (Catalog #MADVNOB) and filtration apparatus (Millipore system Catalog MAVM0960R) with vacuum aspiration was used to harvest and rinse labeled membranes (8 times with 0.2 mL of chilled binding buffer). […] Binding data were analyzed using GraphPad Prism (GraphPad Software, Inc. San Diego, Calif.).

Assay [5] addresses T5, human CB2 receptors (Homo sapiens, UniProt P34972).
T5 construct: (cDNA clone) CNR0200000
Kind of assay: cAMP assay in HEK-293 cells, hCB2 agonist. The class given is cell-based. The note with it: for hCB2 EC50 (cAMP ag, nM): inhibition of forskolin-stimulated cAMP, HEK-293 cells. The procedure: as §2
as §4, with “For cannabinoid receptor functional assays measuring agonist effects on cellular cAMP levels, monolayers of cultured cells were harvested with enzyme-free PBS-based cell dissociation buffer (Gibco, Cat#13151-04).” left out, “100%.” for “100%. CB1 or CB2 agonists reduced forskolin-stimulated cAMP signaling. The EC50 value of an agonist compound was defined as the concentration at which 50% of the forskolin-stimulated cAMP synthesis was inhibited.”

The mark [6] stands for this setting: displacement of 0.5 nM [3H]-CP 55,940, read-out: hCB1 IC50 (CP displ).
The mark [7] stands for this setting: displacement of 0.5 nM [3H]-CP 55,940, read-out: hCB2 IC50 (CP displ).

Like-named read-outs stand apart in the source and are kept apart here.

T5 sequence (P34972 whole entry): as above
T2 sequence (P21554 whole entry): as the sequence (P21554 whole entry) above
T1 sequence (P34972 whole entry): as the sequence (P34972 whole entry) above

Consider `Cc1cc2cc(C(=O)c3cccc(Cl)c3Cl)sc2n1C` [Compound 20, (2,3-Dichlorophenyl)(5,6-dimethyl-6H-thieno[2,3-b]pyrrol-2-yl)methanone], for which the EC50 in assay [1] was 0.1 to 1 µM. Moreover, in assay [2], the “hCB1 EC50 (cAMP ag, nM)” value is recorded as “NS (NS means “Not Significant,” which means less than 30% agonist activity when compared to the positive control.)”. Further, the figures for the IC50 in assay [3] and in assay [4] were more than 10 µM and 1 to 10 µM, respectively.
As to `COc1ccc(C(=O)c2cc3cc(C)n(CCn4ccnc4)c3s2)cc1` [Compound 67, (6-(2-(1H-Imidazol-1-yl)ethyl)-5-methyl-6H-thieno[2,3-b]pyrrol-2-yl)(4-methoxyphenyl)methanone], the EC50 in assay [1] lay within 0.1 to 1 µM. Also, in assay [2], the “hCB1 EC50 (cAMP ag, nM)” value was “NS (NS means “Not Significant,” which means less than 30% agonist activity when compared to the positive control.)”. In addition, the IC50 in assay [3] is more than 10 µM; in assay [4], 1 to 10 µM.
Take `COc1ccc(C(=O)c2cc3cc(C)[nH]c3s2)c(Cl)c1` [Compound 79, (2-Chloro-4-methoxyphenyl)(5-methyl-6H-thieno[2,3-b]pyrrol-2-yl)methanone]: in assay [2], the “hCB1 EC50 (cAMP ag, nM)” value is listed as “NS (NS means “Not Significant,” which means less than 30% agonist activity when compared to the positive control.)”. The IC50 in assay [3] and in assay [4] was more than 10 µM throughout. Also, the EC50 in assay [5] lay within 0.1 to 1 µM.
Regarding `COc1ccc(C(=O)c2cc3cc(C)n(CCCNS(=O)(=O)c4ccccc4)c3s2)cc1` [Compound 81, N-(3-(2-(4-Methoxybenzoyl)-5-methyl-6H-thieno[2,3-b]pyrrol-6-yl)propyl)benzenesulfonamide], the “hCB1 EC50 (cAMP ag, nM)” value in assay [2] is on record as “NS (NS means “Not Significant,” which means less than 30% agonist activity when compared to the positive control.)”. The IC50 in assay [3] (setting [6]) was more than 10 µM; in assay [4] (setting [7]), 1 to 10 µM. In addition, the “hCB2 EC50 (cAMP ag, nM)” value in assay [5] is listed as “NS (NS means “Not Significant,” which means less than 30% agonist activity when compared to the positive control.)”.
For `COc1ccc(C(=O)c2cc3cc(C)n(CCN4CCN(S(C)(=O)=O)CC4)c3s2)cn1` [Compound 143, (6-methoxypyridin-3-yl)(5-methyl-6-(2-(4-(methylsulfonyl)piperazin-1-yl)ethyl)-6H-thieno[2,3-b]pyrrol-2-yl)methanone], in assay [2], the “hCB1 EC50 (cAMP ag, nM)” value is recorded as “NS (NS means “Not Significant,” which means less than 30% agonist activity when compared to the positive control.)”. Besides, the IC50 in assay [3] (setting [6]) and in assay [4] (setting [7]) was more than 10 µM in each case. The “hCB2 EC50 (cAMP ag, nM)” value in assay [5] was “NS (NS means “Not Significant,” which means less than 30% agonist activity when compared to the positive control.)”.
`COc1ccc(C(=O)c2cc3cc(C)n(CCN4CCCC4C(=O)O)c3s2)cn1` (stereo not shown) [Compound 146, 1-(2-(2-(6-methoxynicotinoyl)-5-methyl-6H-thieno[2,3-b]pyrrol-6-yl)ethyl)pyrrolidine-2-carboxylic acid]: the “hCB1 EC50 (cAMP ag, nM)” value in assay [2] is reported as “NS (NS means “Not Significant,” which means less than 30% agonist activity when compared to the positive control.)”. Moreover, the IC50 is more than 10 µM in assay [3] and 0.1 to 1 µM in assay [4]. Moreover, in assay [5], the EC50 lay in the range of 0.1 to 1 µM.
Consider `COc1ccc(C(=O)c2cc3cc(C)n(CCNCC4CCOCC4)c3s2)cn1` [Compound 149, (6-methoxypyridin-3-yl)(5-methyl-6-(2-((tetrahydro-2H-pyran-4-yl)methylamino)ethyl)-6H-thieno[2,3-b]pyrrol-2-yl)methanone], for which the “hCB1 EC50 (cAMP ag, nM)” value in assay [2] is “NS (NS means “Not Significant,” which means less than 30% agonist activity when compared to the positive control.)”. In addition, the IC50 in assay [3] and in assay [4] was more than 10 µM in each case. For the same compound, in assay [5], the EC50 was 0.1 to 1 µM.

Source of the values: patent US20130029970A1 (priority 2009, published 2013).
